According to patent US8853233B2, “Broad-spectrum anti-cancer treatment based on iminocamptothecin derivatives” (Sigma-Tau Industrie Farmaceutiche Riunite S.p.A., priority 2007, dated 2014):

Key:
Design in all cases: species or system nude athymic mice
[1] = tested on: MiaPaCa2 pancreas ca. xenograft; assay: In vivo antitumoral activity, MiaPaCa2 tumor xenograft; details: q4d × 4
Procedure: (§1) Exponentially growing tumor cells were injected s.c. into nude athymic mice. The number of tumor cells was previously chosen by a growth curve. […] Animals were housed under a light-dark cycle, keeping temperature and humidity constant. Parameters of the animal rooms were assessed as follows: 22±2° C. temperature, 55±10% relative humidity, about 15-20 filtered air changes/hour and 12 hour circadian cycle of artificial light (7 a.m., 7 p.m.). At request, the environmental conditions were monitored and the data are retained in Animal Housing Archives. Drinking water was supplied ad libitum. Each mouse was offered daily a complete pellet diet (GLP 4RF21, Mucedola) throughout the study. The analytical certificates of animal food and water are retained at Sigma-Tau premises. All animals were weighed before starting the experiment and were subdivided into the different dosage groups. Each cage was identified by a paper tag indicating: cage number, group, date of tumor injection, starting date of treatment, name of the test item, dose and route of administration, date of sacrifice.
(§2) Tumor growth was followed by biweekly measurements of tumor diameters with a Vernier caliper. Tumor volume (TV, mm^3) was calculated as: [length (mm)×width (mm)^2]/2, where the width and the length are the shortest and the longest diameters of each tumor, respectively.
(§3) LTS (long term survivors) were considered mice without tumor 90 days upon the tumor injection.

[2] = tested on: 501Mel melanoma xenograft; assay: In vivo antitumoral activity, 501Mel tumor xenograft; details: 501Mel xenograft, q4d × 4
Procedure: as §1, §2, §3

[3] = tested on: KB squamous oral head and neck carcinoma xenograft; assay: In vivo antitumoral activity, KB tumor xenograft; details: q4d × 4
Procedure: as §1, §2, §3

[4] = tested on: A253 epidermoid submaxillary salivary gland carcinoma xenograft; assay: In vivo antitumoral activity, A253 tumor xenograft; details: q4d × 4
Procedure: as §1, §2
LTS (long term survivors) were considered mice without tumor 90 days upon the tumor injection. […]

[5] = tested on: A431 epidermoid skin ca. xenograft; assay: In vivo antitumoral activity, A431 tumor xenograft; details: q4d × 4
Procedure: as §1, §2, §3

[6] = tested on: FaDu squamous pharynx carcinoma xenograft; assay: In vivo antitumoral activity, FaDu tumor xenograft
Procedure: as §1, §2, §3

[7] = tested on: MESO mesothelioma xenograft; assay: In vivo antitumoral activity, MESO tumor xenograft; details: q4d × 4
Procedure: as §1, §2, §3

[8] = tested on: HT1376 bladder ca. xenograft; assay: In vivo antitumoral activity, HT1376 tumor xenograft; details: q4d × 4
Procedure: as §1, §2, §3

In the case of `CC[C@@]1(O)C(=O)OCc2c1cc1n(c2=O)Cc2c-1nc1ccccc1c2/C=N\OCCN` [ST1968, 7-(2-amino)ethoxyiminomethylcamptothecin], the “CR (complete response)” value ([1]; 17.5 mg/kg i.v.) is reported as 0/7, the “LCK (log10 cell kill)” value ([1]; 17.5 mg/kg i.v.) is reported as 1.23 and the “LTS (long term survivors)” value ([1]; 17.5 mg/kg i.v.) is reported as 0/7. The “TVI % (tumor volume inhibition)” value ([1]; 17.5 mg/kg i.v.) was 75%, the “CR (complete response)” value ([1]; 30 mg/kg i.v.) was 0/8 and the “LCK (log10 cell kill)” value ([1]; 30 mg/kg i.v.) was 1.67. For the same compound, the “LTS (long term survivors)” value ([1]; 30 mg/kg i.v.) was 0/8, the “TVI % (tumor volume inhibition)” value ([1]; 30 mg/kg i.v.) was 89% and the “CR (complete response)” value ([2]; 20 mg/kg i.v.) was 0/6. The “LCK (log10 cell kill)” value ([2]; 20 mg/kg i.v.) was 1.0, the “LTS (long term survivors)” value ([2]; 20 mg/kg i.v.) was 0/6 and the “TVI % (tumor volume inhibition)” value ([2]; 20 mg/kg i.v.) was 65%. The “CR (complete response)” value ([2]; 30 mg/kg i.v.) was 0/10, the “LCK (log10 cell kill)” value ([2]; 30 mg/kg i.v.) was 1.4 and the “LTS (long term survivors)” value ([2]; 30 mg/kg i.v.) was 0/10. The “TVI % (tumor volume inhibition)” value ([2]; 30 mg/kg i.v.) was 68%, the “CR (complete response)” value ([3]; 17.5 mg/kg i.v.) was 4/8 and the “LCK (log10 cell kill)” value ([3]; 17.5 mg/kg i.v.) was 3.79. The “LTS (long term survivors)” value ([3]; 17.5 mg/kg i.v.) was 4/8, the “TVI % (tumor volume inhibition)” value ([3]; 17.5 mg/kg i.v.) was 99% and the “CR (complete response)” value ([3]; 35 mg/kg i.v.) was 7/7. For the same compound, the “LCK (log10 cell kill)” value ([3]; 35 mg/kg i.v.) was >>4.0, the “LTS (long term survivors)” value ([3]; 35 mg/kg i.v.) was 7/7 and the “TVI % (tumor volume inhibition)” value ([3]; 35 mg/kg i.v.) was 100%. For the same compound, the “CR (complete response)” value ([4]; 15 mg/kg i.v.) was 0/8, the “LCK (log10 cell kill)” value ([4]; 15 mg/kg i.v.) was 0.6 and the “LTS (long term survivors)” value ([4]; 15 mg/kg i.v.) was 0/8. The “TVI % (tumor volume inhibition)” value ([4]; 15 mg/kg i.v.) was 84%, the “CR (complete response)” value ([4]; 30 mg/kg i.v.) was 0/8 and the “LCK (log10 cell kill)” value ([4]; 30 mg/kg i.v.) was 1.2. For the same compound, the “LTS (long term survivors)” value ([4]; 30 mg/kg i.v.) was 1/8, the “TVI % (tumor volume inhibition)” value ([4]; 30 mg/kg i.v.) was 90% and the “CR (complete response)” value ([4]; 35 mg/kg i.v.) was 0/7. For the same compound, the “LCK (log10 cell kill)” value ([4]; 35 mg/kg i.v.) was 1.5, the “LTS (long term survivors)” value ([4]; 35 mg/kg i.v.) was 2/7 and the “TVI % (tumor volume inhibition)” value ([4]; 35 mg/kg i.v.) was 96%. The “CR (complete response)” value ([5]; 30 mg/kg i.v.) was 12/12, the “LCK (log10 cell kill)” value ([5]; 30 mg/kg i.v.) was >>7.7 and the “LTS (long term survivors)” value ([5]; 30 mg/kg i.v.) was 12/12. The “TVI % (tumor volume inhibition)” value ([5]; 30 mg/kg i.v.) was 100%, the “CR (complete response)” value ([6]; 15 mg/kg i.v., q4d × 4) was 8/8 and the “LCK (log10 cell kill)” value ([6]; 15 mg/kg i.v., q4d × 4) was >>3.9. The “LTS (long term survivors)” value ([6]; 15 mg/kg i.v., q4d × 4) was 8/8, the “TVI % (tumor volume inhibition)” value ([6]; 15 mg/kg i.v., q4d × 4) was 100% and the “CR (complete response)” value ([6]; 30 mg/kg i.v., q4d × 4) was 8/8. For the same compound, the “LCK (log10 cell kill)” value ([6]; 30 mg/kg i.v., q4d × 4) was >>3.9, the “LTS (long term survivors)” value ([6]; 30 mg/kg i.v., q4d × 4) was 8/8 and the “TVI % (tumor volume inhibition)” value ([6]; 30 mg/kg i.v., q4d × 4) was 100%. For the same compound, the “CR (complete response)” value ([6]; 35 mg/kg i.v., q4d × 4) was 7/7, the “LCK (log10 cell kill)” value ([6]; 35 mg/kg i.v., q4d × 4) was >>3.9 and the “LTS (long term survivors)” value ([6]; 35 mg/kg i.v., q4d × 4) was 7/7. For the same compound, the “TVI % (tumor volume inhibition)” value ([6]; 35 mg/kg i.v., q4d × 4) was 100%, the “CR (complete response)” value ([7]; 30 mg/kg i.v.) was 2/12 and the “LCK (log10 cell kill)” value ([7]; 30 mg/kg i.v.) was 1.4. For the same compound, the “LTS (long term survivors)” value ([7]; 30 mg/kg i.v.) was 0/12, the “TVI % (tumor volume inhibition)” value ([7]; 30 mg/kg i.v.) was 92% and the “CR (complete response)” value ([8]; 30 mg/kg i.v.) was 1/12. For the same compound, the “LCK (log10 cell kill)” value ([8]; 30 mg/kg i.v.) was 0.5, the “LTS (long term survivors)” value ([8]; 30 mg/kg i.v.) was 0/12 and the “TVI % (tumor volume inhibition)” value ([8]; 30 mg/kg i.v.) was 77%.
`N.N.[Cl][Pt][Cl]` [cisplatin] was tested, and the “CR (complete response)” value ([6]; 4.7 mg/kg i.v., q7d × 3) was 1/8, the “LCK (log10 cell kill)” value ([6]; 4.7 mg/kg i.v., q7d × 3) was 1.6 and the “LTS (long term survivors)” value ([6]; 4.7 mg/kg i.v., q7d × 3) was 0/8. For the same compound, the “TVI % (tumor volume inhibition)” value ([6]; 4.7 mg/kg i.v., q7d × 3) was 93%, the “CR (complete response)” value ([6]; 7 mg/kg i.v., q7d × 3) was 1/8 and the “LCK (log10 cell kill)” value ([6]; 7 mg/kg i.v., q7d × 3) was 3.9. The “LTS (long term survivors)” value ([6]; 7 mg/kg i.v., q7d × 3) was 3/8 and the “TVI % (tumor volume inhibition)” value ([6]; 7 mg/kg i.v., q7d × 3) was 99%.
In the case of `CCc1c2c(nc3ccc(OC(=O)N4CCC(N5CCCCC5)CC4)cc13)-c1cc3c(c(=O)n1C2)COC(=O)[C@]3(O)CC` [irinotecan, reference compound], the “CR (complete response)” value ([1]; 60 mg/kg i.v.) is reported as 0/7, the “LCK (log10 cell kill)” value ([1]; 60 mg/kg i.v.) is reported as 1.23 and the “LTS (long term survivors)” value ([1]; 60 mg/kg i.v.) is reported as 0/7. The “CR (complete response)” value ([2]; 50 mg/kg i.v.) was 0/10, the “LCK (log10 cell kill)” value ([2]; 50 mg/kg i.v.) was 1.3 and the “LTS (long term survivors)” value ([2]; 50 mg/kg i.v.) was 0/10. The “CR (complete response)” value ([3]; 30 mg/kg i.v.) was 0/7, the “LCK (log10 cell kill)” value ([3]; 30 mg/kg i.v.) was 1.26 and the “LTS (long term survivors)” value ([3]; 30 mg/kg i.v.) was 0/7. The “CR (complete response)” value ([3]; 60 mg/kg i.v.) was 0/8, the “LCK (log10 cell kill)” value ([3]; 60 mg/kg i.v.) was 1.63 and the “LTS (long term survivors)” value ([3]; 60 mg/kg i.v.) was 0/8. For the same compound, the “CR (complete response)” value ([4]; 30 mg/kg i.v.) was 0/8, the “LCK (log10 cell kill)” value ([4]; 30 mg/kg i.v.) was 0.1 and the “LTS (long term survivors)” value ([4]; 30 mg/kg i.v.) was 0/8. For the same compound, the “CR (complete response)” value ([4]; 60 mg/kg i.v.) was 0/8, the “LCK (log10 cell kill)” value ([4]; 60 mg/kg i.v.) was 0.5 and the “LTS (long term survivors)” value ([4]; 60 mg/kg i.v.) was 0/8. For the same compound, the “CR (complete response)” value ([5]; 50 mg/kg i.v.) was 12/12, the “LCK (log10 cell kill)” value ([5]; 50 mg/kg i.v.) was 6.8 and the “LTS (long term survivors)” value ([5]; 50 mg/kg i.v.) was 9/12. For the same compound, the “CR (complete response)” value ([6]; 30 mg/kg i.v., q4d × 4) was 8/8, the “LCK (log10 cell kill)” value ([6]; 30 mg/kg i.v., q4d × 4) was >>3.9 and the “LTS (long term survivors)” value ([6]; 30 mg/kg i.v., q4d × 4) was 8/8. The “CR (complete response)” value ([6]; 60 mg/kg i.v., q4d × 4) was 8/8, the “LCK (log10 cell kill)” value ([6]; 60 mg/kg i.v., q4d × 4) was >>3.9 and the “LTS (long term survivors)” value ([6]; 60 mg/kg i.v., q4d × 4) was 8/8. For the same compound, the “CR (complete response)” value ([7]; 50 mg/kg i.v.) was 0/12, the “LCK (log10 cell kill)” value ([7]; 50 mg/kg i.v.) was 0.8 and the “LTS (long term survivors)” value ([7]; 50 mg/kg i.v.) was 0/12. For the same compound, the “CR (complete response)” value ([8]; 50 mg/kg i.v.) was 0/10, the “LCK (log10 cell kill)” value ([8]; 50 mg/kg i.v.) was 0.2 and the “LTS (long term survivors)” value ([8]; 50 mg/kg i.v.) was 0/10.
